# Target: CDK2 (human) (UniProt P24941)
# Assay: Enzyme Assay
row,Ki [nM],SMILES
1,< 1000,O=c1[nH][nH]c2cc(C(F)(F)F)c(-c3cc(N4CCCCC4)cc(Nc4n[nH]c5ccccc45)n3)cc12
2,< 1000,O=c1[nH][nH]c2ccc(-c3nc(Nc4n[nH]c5cc(=O)n(-c6ccc(Oc7ccccc7)cc6)nc45)c4ccccc4n3)cc12
3,< 1000,O=c1[nH][nH]c2ccc(-c3nc(Nc4n[nH]cc4-c4ccccc4)c4ccccc4n3)c(C(F)(F)F)c12
4,< 1000,O=c1[nH][nH]c2cc(C3CC3)c(-c3nc(Nc4n[nH]c5c(F)cc(F)cc45)c4ccccc4n3)cc12
5,< 1000,O=c1[nH][nH]c2ccc(CNc3nc(Nc4cc(C5CC5)[nH]n4)cc(-c4ccccc4)n3)cc12
6,< 1000,Cc1cnc(NC2CCCC(Oc3ccc4c(=O)[nH][nH]c4c3)C2)s1 (stereo unspecified)
7,< 1000,O=c1[nH][nH]c2cc(Oc3nc(Nc4cc(C5CC5)[nH]n4)c4ccccc4n3)ccc12
8,< 1000,Cc1cc(Nc2cc(C3CC3)[nH]n2)nc(Nc2ccc3c(=O)[nH][nH]c3c2)n1
9,< 1000,O=c1[nH][nH]c2cc(COc3cc(Nc4n[nH]c5ccccc45)ccn3)ccc12
10,< 1000,O=c1[nH][nH]c2cc(NC(CCNc3cc(C4CC4)[nH]n3)Cc3ccccc3)ccc12 (stereo unspecified)
11,< 1000,O=c1[nH][nH]c2cc(SC(CCNc3cc(C4CC4)[nH]n3)Cc3ccccc3)ccc12 (stereo unspecified)
12,< 1000,COCc1cc(Nc2cc(C)[nH]n2)nc(COc2ccc3[nH][nH]c(=O)c3c2)n1
13,< 1000,Cc1cc(Nc2cc(N3CCN(C)CC3)nc(Oc3ccc4c(=O)[nH][nH]c4c3)n2)n[nH]1
14,< 1000,O=c1[nH][nH]c2cc(NOCCNc3cc(C4CC4)[nH]n3)ccc12
15,< 1000,O=c1[nH][nH]c2cc(OC(CCNc3nccnn3)Cc3ccccc3)ccc12 (stereo unspecified)
16,< 1000,O=c1[nH][nH]c2cc(OCCONc3nccnn3)ccc12
17,< 1000,Cc1cnc(NCCCCc2ccc3c(=O)[nH][nH]c3c2)s1
18,< 1000,CC(C)c1cc(Nc2nc(Nc3ccc4c(=O)[nH][nH]c4c3)nc3ccccc23)n[nH]1
19,< 1000,O=c1[nH][nH]c2cc(OCCONc3ccccn3)ccc12
20,< 1000,O=c1[nH][nH]c2cc(CCCC(Nc3cc(C4CC4)[nH]n3)c3ccccc3)ccc12 (stereo unspecified)
21,< 1000,O=c1[nH][nH]c2cc(COCc3cc4ccccc4c(Nc4cc(C5CC5)[nH]n4)n3)ccc12
22,< 1000,Cc1cc(Nc2cc(N3CCCC3)nc(SCc3ccc4c(=O)[nH][nH]c4c3)n2)n[nH]1
23,< 1000,Cc1cc(Nc2cc(-c3ccco3)[nH]n2)nc(-c2ccc3[nH][nH]c(=O)c3c2)n1
24,< 1000,O=C(CCNc1ccccn1)Oc1ccc2c(=O)[nH][nH]c2c1

row,Ki [nM],SMILES
1,< 1000,O=c1[nH][nH]c2cc(SC3CCCC(Nc4cc(C5CC5)[nH]n4)C3)ccc12 (stereo unspecified)
2,< 1000,CN1CCN(C(=O)OCc2ccccc2)CC1c1cc(Nc2n[nH]c3ccccc23)nc(-c2ccc3[nH][nH]c(=O)c3c2C(F)(F)F)n1 (stereo unspecified)
3,< 1000,COc1c(-c2nc(Nc3cc(C)[nH]n3)c3ccccc3n2)ccc2[nH][nH]c(=O)c12
4,< 1000,Cc1cc(Nc2nc(-c3cc4c(=O)[nH][nH]c4cc3-c3ccccc3)nc3ccccc23)n[nH]1
5,< 1000,Cn1cnc(NCCC(Cc2ccccc2)Sc2ccc3c(=O)[nH][nH]c3c2)c1 (stereo unspecified)
6,< 1000,Cc1cc(Nc2cc(CSc3ccc4c(=O)[nH][nH]c4c3)nc3ccccc23)n[nH]1
7,< 1000,Cn1cnc(NC2COCC(Sc3ccc4c(=O)[nH][nH]c4c3)C2)c1 (stereo unspecified)
8,< 1000,Cc1cccc2nc(Nc3ccc4c(=O)[nH][nH]c4c3)nc(Nc3cc(C4CC4)[nH]n3)c12
9,< 1000,Cn1cnc(NC(=O)CCCc2ccc3c(=O)[nH][nH]c3c2)c1
10,< 1000,O=c1[nH][nH]c2ccc(-c3cc(Nc4n[nH]c5ccccc45)nnc3NCCN3CCCCC3)c(C(F)(F)F)c12
11,< 1000,O=c1[nH][nH]c2cc(SCCCNc3cc(C4CC4)[nH]n3)ccc12
12,< 1000,O=c1[nH][nH]c2cc(Sc3nccc(Nc4cc(C5CC5)[nH]n4)n3)ccc12
13,< 1000,O=C(NC1CCCCC1)c1cc(Nc2nc(-c3ccc4[nH][nH]c(=O)c4c3)nc3ccccc23)n[nH]1
14,< 1000,O=c1[nH][nH]c2cc(Nc3nc(Nc4cc(C5CC5)[nH]n4)c4cc(Cl)ccc4n3)ccc12
15,< 1000,Cc1cc(Nc2nc(Sc3ccc4c(=O)[nH][nH]c4c3)nc3c(OCCCN(C)C)cccc23)n[nH]1
16,< 1000,O=c1[nH][nH]c2cc(O)c(-c3nc(Nc4n[nH]c5c(F)cc(F)cc45)c4ccccc4n3)cc12
17,< 1000,O=C(CCCc1ccc2c(=O)[nH][nH]c2c1)Nc1cc(C2CC2)[nH]n1
18,< 1000,CCc1cc(Nc2nc(Nc3ccc4c(=O)[nH][nH]c4c3)nc3ccccc23)n[nH]1
19,< 1000,O=c1[nH][nH]c2ccc(-c3nc4c(c(Nc5n[nH]c6ccccc56)n3)CCCC4)c(C(F)(F)F)c12
20,< 1000,O=c1[nH][nH]c2cc(C(F)(F)F)c(-c3nc(Nc4cc(C5CC5)[nH]n4)nc(-c4ccncc4)n3)cc12
21,< 1000,C#Cc1c(-c2nc(Nc3n[nH]c4ccc(F)cc34)c3ccccc3n2)ccc2[nH][nH]c(=O)c12
22,< 1000,O=c1[nH][nH]c2cc(C(F)(F)F)c(-c3nc4c(c(Nc5n[nH]c6ccc(F)cc56)n3)OCCCC4)cc12
23,< 1000,Cn1cnc(NC2CCC(c3ccc4[nH][nH]c(=O)c4c3)C2)c1 (stereo unspecified)
24,< 1000,O=c1[nH][nH]c2cc(SC3CCCC(Nc4ccccn4)C3)ccc12 (stereo unspecified)

row,Ki [nM],SMILES
1,< 1000,CC(=O)NC1CCC(c2nc(-c3cc4c(=O)[nH][nH]c4cc3C(F)(F)F)nc(Nc3n[nH]c4ccccc34)c2C)CC1 (stereo unspecified)
2,< 1000,O=c1[nH][nH]c2cc(OCCCNc3nccnn3)ccc12
3,< 1000,Cc1cnc(NC2CCCC(c3ccc4[nH][nH]c(=O)c4c3)C2)s1 (stereo unspecified)
4,< 1000,Cn1cnc(NCCONc2ccc3c(=O)[nH][nH]c3c2)c1
5,< 1000,COCc1cc(Nc2cc(C)[nH]n2)nc(Nc2ccc3c(=O)[nH][nH]c3c2)n1
6,< 1000,Cn1cnc(NC2CCC(Sc3ccc4c(=O)[nH][nH]c4c3)C2)c1 (stereo unspecified)
7,< 1000,Cc1cc(Nc2nc(-c3ccc4[nH][nH]c(=O)c4c3)nc3ccsc23)n[nH]1
8,< 1000,O=c1[nH][nH]c2cc(C(F)(F)F)c(-c3cc4cccnc4c(Nc4nc[nH]n4)n3)cc12
9,< 1000,O=c1[nH][nH]c2ccc(C3CCCC(Nc4cc(C5CC5)[nH]n4)C3)cc12 (stereo unspecified)
10,< 1000,Cc1cc(Nc2nc(Sc3ccc4c(=O)[nH][nH]c4c3)nc3ccccc23)n[nH]1
11,< 1000,NCCc1cc(Nc2n[nH]c3ccccc23)nc(-c2ccc3[nH][nH]c(=O)c3c2C(F)(F)F)n1
12,< 1000,O=C(CCNc1ccc2c(=O)[nH][nH]c2c1)Nc1ccccn1
13,< 1000,CNC(=O)c1cc(Nc2cc(C)[nH]n2)nc(Sc2ccc3c(=O)[nH][nH]c3c2)n1
14,< 1000,Cc1cc(Nc2nc(Oc3ccc4c(=O)[nH][nH]c4c3)nc3ccccc23)n[nH]1
15,< 1000,Cc1cc(Nc2cc(-c3ccccc3C)nc(Sc3ccc4c(=O)[nH][nH]c4c3)n2)n[nH]1
16,< 1000,Cc1cnc(NCCC(=O)Oc2ccc3c(=O)[nH][nH]c3c2)s1
17,< 1000,O=C1Cc2nc(-c3ccc4[nH][nH]c(=O)c4c3C(F)(F)F)nc(Nc3n[nH]c4ccccc34)c2CN1
18,< 1000,O=c1[nH][nH]c2cc(NCCC(Nc3cc(C4CC4)[nH]n3)c3ccccc3)ccc12 (stereo unspecified)
19,< 1000,Cc1cnc(NCCCOc2ccc3c(=O)[nH][nH]c3c2)s1
20,< 1000,O=c1[nH][nH]c2cc(NCC3CCCC3Nc3ccccn3)ccc12 (stereo unspecified)
21,< 1000,NCCOc1cccc2c(Nc3n[nH]c4ccccc34)nc(-c3ccc4[nH][nH]c(=O)c4c3C(F)(F)F)nc12
22,< 1000,Cc1cc(Nc2cc(N3CCOCC3)nc(OCc3ccc4c(=O)[nH][nH]c4c3)n2)n[nH]1
23,< 1000,Cc1cnc(Oc2ccc3c(=O)[nH][nH]c3c2)nc1Nc1cc(C2CC2)[nH]n1
24,< 1000,COC[C@H]1CCN(C(=O)c2cc(Nc3nc(-c4ccc5[nH][nH]c(=O)c5c4)nc4ccccc34)n[nH]2)C1

row,Ki [nM],SMILES
1,< 1000,N#Cc1c(-c2ncnc(Nc3n[nH]c4c3CCCC4)n2)ccc2[nH][nH]c(=O)c12
2,< 1000,O=c1[nH][nH]c2cc(CCCONc3cc(C4CC4)[nH]n3)ccc12
3,< 1000,Cc1cc(Nc2cc(Sc3ccc4c(=O)[nH][nH]c4c3)nc3ccccc23)n[nH]1
4,< 1000,COCc1cc(Nc2n[nH]c3ccccc23)nc(-c2ccc3[nH][nH]c(=O)c3c2)n1
5,< 1000,Cc1cc(Nc2nc(Sc3ccc4c(=O)[nH][nH]c4c3)nc3cc(NO)ccc23)n[nH]1
6,< 1000,O=c1[nH][nH]c2ccc(Nc3nc(Nc4cc(C5CC5)[nH]n4)c4ccccc4n3)cc12
7,< 1000,O=c1[nH][nH]c2cc(NOCCNc3ccccn3)ccc12
8,< 1000,Cc1cc(Nc2nc(CSc3ccc4[nH][nH]c(=O)c4c3)nc3c2CCCC3)n[nH]1
9,< 1000,Cc1cc(Nc2cc(Cc3ccc4c(=O)[nH][nH]c4c3)nc3ccccc23)n[nH]1
10,< 1000,O=c1[nH][nH]c2cc([C@@H]3C[C@H]3c3nc(Nc4n[nH]c5ccccc45)c4ccccc4n3)ccc12
11,< 1000,Cn1cnc(NC2CCCC2CCc2ccc3c(=O)[nH][nH]c3c2)c1 (stereo unspecified)
12,< 1000,Cc1cnc(NC(=O)CC(=O)Cc2ccc3c(=O)[nH][nH]c3c2)s1
13,< 1000,Cc1cc(Nc2nc(Nc3ccc4c(=O)[nH][nH]c4c3)nc3c2CCCC3)n[nH]1
14,< 1000,CN(C)CCOCc1cc(Nc2n[nH]c3ccccc23)nc(Sc2ccc3c(=O)[nH][nH]c3c2)n1
15,< 1000,O=c1[nH][nH]c2ccc(-c3nc(Nc4cc(C5CC5)[nH]n4)c4ccccc4n3)c(C(F)(F)F)c12
16,< 1000,O=c1[nH][nH]c2cc(Sc3nc(Nc4cc(C5CC5)[nH]n4)cc(-c4ccccc4)n3)ccc12
17,< 1000,O=c1[nH][nH]c2cc(Oc3cccc(Nc4n[nH]c5ccccc45)n3)ccc12
18,< 1000,COc1ccc(-c2cc(Nc3cc(C)[nH]n3)nc(Oc3ccc4c(=O)[nH][nH]c4c3)n2)cc1
19,< 1000,CC(=O)Nc1ccc(Sc2cc(Nc3cc(C)[nH]n3)nc(-c3ccc4[nH][nH]c(=O)c4c3)n2)cc1
20,< 1000,Cc1cnc(NCCC(=O)Cc2ccc3c(=O)[nH][nH]c3c2)s1
21,< 1000,Cn1cnc(NC2CCC(COCc3ccc4c(=O)[nH][nH]c4c3)C2)c1 (stereo unspecified)
22,< 1000,O=c1[nH][nH]c2cc(CSc3cc(Nc4n[nH]c5ccccc45)c4ccccc4n3)ccc12
23,< 1000,Cc1nc(-c2ccc3[nH][nH]c(=O)c3c2C(F)(F)F)nc(Nc2n[nH]c3ccccc23)c1C
24,< 1000,Cc1cnc(NC2CCCC2CSc2ccc3c(=O)[nH][nH]c3c2)s1 (stereo unspecified)

# From the Kinase Knowledgebase extract (Sharma et al. 2016)
